Measurements taken from paper PMC10366214, “The anti-Alzheimer potential of novel spiroindolin-1,2-diazepine derivatives as targeted cholinesterase inhibitors with modified substituents” (Scientific Reports, 2023).
Where two headings read alike, the source gives them in different places.

Columns and labels:
BChE = BChE (Homo sapiens, UniProt P06276); assay: BChE inhibition, modified Ellman method; format: biochemical; settings: for inhibition at 50 µM: read-out: BChE % inhibition at 50 µM
Description: (§1) Cholinesterase inhibitory activities of all analogs were evaluated spectrometrically using the modified Ellman method as previously reported[40],[41]. […] The absorbance of each well was measured at 415 nm using a microplate reader. IC50 values and inhibition values were calculated with the software GraphPad Prism as the mean of three independent experiments and are expressed as mean ± SEM.

AChE = AChE (Homo sapiens, UniProt P22303); assay: biochemical; settings: for inhibition at 50 µM: read-out: AChE % inhibition at 50 µM
Description: as §1

[1] = 50 µM, mean ± S.E of three to five independent experiments
[2] = mean ± S.E of three to five independent experiments, read-out: AChE IC50
[3] = mean ± S.E of three to five independent experiments, read-out: BChE IC50

Sequence of BChE (P06276 29-602): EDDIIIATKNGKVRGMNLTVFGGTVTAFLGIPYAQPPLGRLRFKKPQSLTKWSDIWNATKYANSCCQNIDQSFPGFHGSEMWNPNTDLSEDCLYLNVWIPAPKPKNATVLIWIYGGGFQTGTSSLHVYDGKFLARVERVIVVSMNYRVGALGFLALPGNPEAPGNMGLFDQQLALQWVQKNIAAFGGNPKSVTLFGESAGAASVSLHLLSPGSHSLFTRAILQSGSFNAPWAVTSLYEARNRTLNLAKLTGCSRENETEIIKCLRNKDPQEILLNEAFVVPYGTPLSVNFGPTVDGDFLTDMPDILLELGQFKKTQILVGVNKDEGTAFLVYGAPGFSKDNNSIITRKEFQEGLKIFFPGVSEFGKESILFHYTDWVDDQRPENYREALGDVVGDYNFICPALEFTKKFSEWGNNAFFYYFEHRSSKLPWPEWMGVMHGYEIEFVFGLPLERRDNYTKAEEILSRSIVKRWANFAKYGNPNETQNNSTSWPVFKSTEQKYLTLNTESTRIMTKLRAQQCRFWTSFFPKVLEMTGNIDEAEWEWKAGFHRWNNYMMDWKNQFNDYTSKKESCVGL
Sequence of AChE (P22303 32-614): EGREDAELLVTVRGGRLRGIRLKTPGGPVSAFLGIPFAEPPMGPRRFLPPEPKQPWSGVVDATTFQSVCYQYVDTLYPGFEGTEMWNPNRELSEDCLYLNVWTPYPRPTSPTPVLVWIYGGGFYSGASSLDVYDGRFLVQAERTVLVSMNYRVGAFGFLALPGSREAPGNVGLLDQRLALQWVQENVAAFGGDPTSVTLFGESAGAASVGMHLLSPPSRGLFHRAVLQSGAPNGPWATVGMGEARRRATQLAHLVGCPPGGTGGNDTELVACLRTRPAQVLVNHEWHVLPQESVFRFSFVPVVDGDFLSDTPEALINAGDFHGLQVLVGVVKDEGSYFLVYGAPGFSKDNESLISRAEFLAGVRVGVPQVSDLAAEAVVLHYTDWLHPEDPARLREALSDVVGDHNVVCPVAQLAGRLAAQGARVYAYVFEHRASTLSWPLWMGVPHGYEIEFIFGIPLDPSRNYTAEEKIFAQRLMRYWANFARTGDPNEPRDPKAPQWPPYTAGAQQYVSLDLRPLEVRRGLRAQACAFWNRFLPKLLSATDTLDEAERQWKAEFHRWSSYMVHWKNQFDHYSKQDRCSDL

SMILES | inhibition at 50 µM (BChE; [1]) [%] | inhibition at 50 µM (AChE; [1]) [%] | further results
COc1ccc(OC)c(NC2=C([N+](=O)[O-])C3(C(=O)Nc4ccc(Cl)cc43)C(C#N)=C(N)NN2)c1 (centres unmarked) [Compound 5d, 3-amino-5'-chloro-7-((2,5-dimethoxyphenyl)amino)-6-nitro-2'-oxo-1,2-dihydrospiro[[1,2]diazepine-5,3'-indoline]-4-carbonitrile] | 19.2 ± 4.07 | 27.8 ± 5.26 | –
Cc1ccc(NC2=C([N+](=O)[O-])C3(C(=O)Nc4ccc(Cl)cc43)C(C#N)=C(N)NN2)cc1 (centres unmarked) [Compound 5a, 3-amino-5'-chloro-6-nitro-2'-oxo-7-(p-tolylamino)-1,2-dihydrospiro[[1,2]diazepine-5,3'-indoline]-4-carbonitrile] | 18.1 ± 2.88 | 5.37 ± 3.11 | –
COc1ccc(OC)c(NC2=C([N+](=O)[O-])C3(C(=O)Nc4ccc([N+](=O)[O-])cc43)C(C#N)=C(N)NN2)c1 (centres unmarked) [Compound 5j, 3-amino-7-((2,5-dimethoxyphenyl)amino)-5',6-dinitro-2'-oxo-1,2-dihydrospiro[[1,2]diazepine-5,3'-indoline]-4-carbonitrile] | – | – | IC50 (BChE): 17.4 ± 3.29 µM; inhibition at 50 µM (BChE): 58.4 ± 3.55%; IC50 (AChE): 20.9 ± 2.96 µM; inhibition at 50 µM (AChE): 61.7 ± 3.77%
N#CC1=C(N)NNC(Nc2ccc(O)cc2)=C([N+](=O)[O-])C12C(=O)Nc1c(C(F)(F)F)cccc12 (centres unmarked) [Compound 5v, 3-amino-7-((4-hydroxyphenyl)amino)-6-nitro-2'-oxo-7'-(trifluoromethyl)-1,2-dihydrospiro[[1,2]diazepine-5,3'-indoline]-4-carbonitrile] | 13 ± 1.14 | 17.7 ± 1.82 | –
COc1ccc(NC2=C([N+](=O)[O-])C3(C(=O)Nc4c(C(F)(F)F)cccc43)C(C#N)=C(N)NN2)cc1 (centres unmarked) [Compound 5s, 3-amino-7-((4-methoxyphenyl)amino)-6-nitro-2'-oxo-7'-(trifluoromethyl)-1,2-dihydrospiro[[1,2]diazepine-5,3'-indoline]-4-carbonitrile] | 13.4 ± 3.46 | 56 ± 4.39 | IC50 (AChE; [2]): 17.8 ± 2.79 µM
N#CC1=C(N)NNC(Nc2ccc(O)cc2)=C([N+](=O)[O-])C12C(=O)Nc1c(Br)cc(Br)cc12 (centres unmarked) [Compound 5r, 3-amino-5',7'-dibromo-7-((4-hydroxyphenyl)amino)-6-nitro-2'-oxo-1,2-dihydrospiro[[1,2]diazepine-5,3'-indoline]-4-carbonitrile] | 51.7 ± 1.29 | 46.7 ± 1.92 | IC50 (BChE; [3]): 45.7 ± 5.62 µM
COc1ccc(OC)c(NC2=C([N+](=O)[O-])C3(C(=O)Nc4c(Br)cc(Br)cc43)C(C#N)=C(N)NN2)c1 (centres unmarked) [Compound 5p, 3-amino-5',7'-dibromo-7-((2,5-dimethoxyphenyl)amino)-6-nitro-2'-oxo-1,2-dihydrospiro[[1,2]diazepine-5,3'-indoline]-4-carbonitrile] | 59.3 ± 3.15 | 73.4 ± 4.21 | IC50 (BChE; [3]): 37.9 ± 4.85 µM; IC50 (AChE; [2]): 11.3 ± 1.65 µM
Cc1ccc(NC2=C([N+](=O)[O-])C3(C(=O)Nc4c(Br)cc(Br)cc43)C(C#N)=C(N)NN2)cc1 (centres unmarked) [Compound 5o, 3-amino-5',7'-dibromo-6-nitro-2'-oxo-7-(p-tolylamino)-1,2-dihydrospiro[[1,2]diazepine-5,3'-indoline]-4-carbonitrile] | 14.1 ± 3.7 | 37.6 ± 4.74 | –
Cc1ccccc1NC1=C([N+](=O)[O-])C2(C(=O)Nc3c(C(F)(F)F)cccc32)C(C#N)=C(N)NN1 (centres unmarked) [Compound 5t, 3-amino-6-nitro-2'-oxo-7-(o-tolylamino)-7'-(trifluoromethyl)-1,2-dihydrospiro[[1,2]diazepine-5,3'-indoline]-4-carbonitrile] | 7.31 ± 5.07 | 24.7 ± 1.94 | –
Cc1ccc(NC2=C([N+](=O)[O-])C3(C(=O)Nc4ccc([N+](=O)[O-])cc43)C(C#N)=C(N)NN2)cc1 (centres unmarked) [Compound 5g, 3-amino-5',6-dinitro-2'-oxo-7-(p-tolylamino)-1,2-dihydrospiro[[1,2]diazepine-5,3'-indoline]-4-carbonitrile] | – | – | inhibition at 50 µM (BChE): 24.4 ± 2.96%; IC50 (AChE): 5.88 ± 0.84 µM; inhibition at 50 µM (AChE): 66.3 ± 6.57%
Cc1ccccc1NC1=C([N+](=O)[O-])C2(C(=O)Nc3ccc([N+](=O)[O-])cc32)C(C#N)=C(N)NN1 (centres unmarked) [Compound 5f, 3-amino-5',6-dinitro-2'-oxo-7-(o-tolylamino)-1,2-dihydrospiro[[1,2]diazepine-5,3'-indoline]-4-carbonitrile] | – | – | inhibition at 50 µM (BChE): 23.3 ± 3.97%; IC50 (AChE): 22.4 ± 2.11 µM; inhibition at 50 µM (AChE): 59.6 ± 6.75%
COc1ccc(NC2=C([N+](=O)[O-])C3(C(=O)Nc4ccc(Cl)cc43)C(C#N)=C(N)NN2)cc1 (centres unmarked) [Compound 5b, 3-amino-5'-chloro-7-((4-methoxyphenyl)amino)-6-nitro-2'-oxo-1,2-dihydrospiro[[1,2]diazepine-5,3'-indoline]-4-carbonitrile] | 36.8 ± 2.1 | 42.8 ± 2.15 | –
Cc1ccc(NC2=C([N+](=O)[O-])C3(C(=O)Nc4ccc(Cl)cc43)C(C#N)=C(N)NN2)cc1C (centres unmarked) [Compound 5c, 3-amino-5'-chloro-7-((3,4-dimethylphenyl)amino)-6-nitro-2'-oxo-1,2-dihydrospiro[[1,2]diazepine-5,3'-indoline]-4-carbonitrile] | 37 ± 3.78 | – | AChE % inhibition at 50 µM (AChE; [1]): Not active
N#CC1=C(N)NNC(Nc2ccc(Cl)cc2)=C([N+](=O)[O-])C12C(=O)Nc1ccc([N+](=O)[O-])cc12 (centres unmarked) [Compound 5k, 3-amino-7-((4-chlorophenyl)amino)-5',6-dinitro-2'-oxo-1,2-dihydrospiro[[1,2]diazepine-5,3'-indoline]-4-carbonitrile] | – | – | inhibition at 50 µM (BChE): 17.9 ± 1.81%; inhibition at 50 µM (AChE): 24.6 ± 1.7%
Cc1ccccc1NC1=C([N+](=O)[O-])C2(C(=O)Nc3c(Cl)cc(Cl)cc32)C(C#N)=C(N)NN1 (centres unmarked) [Compound 5m, 3-amino-5',7'-dichloro-6-nitro-2'-oxo-7-(o-tolylamino)-1,2-dihydrospiro[[1,2]diazepine-5,3'-indoline]-4-carbonitrile] | 41.9 ± 6.47 | 24.8 ± 5.48 | –
N#CC1=C(N)NNC(Nc2ccc(Cl)cc2)=C([N+](=O)[O-])C12C(=O)Nc1ccc(Cl)cc12 (centres unmarked) [Compound 5e, 3-amino-5'-chloro-7-((4-chlorophenyl)amino)-6-nitro-2'-oxo-1,2-dihydrospiro[[1,2]diazepine-5,3'-indoline]-4-carbonitrile] | – | 13.4 ± 3.34 | BChE % inhibition at 50 µM (BChE; [1]): Not active
COc1ccc(NC2=C([N+](=O)[O-])C3(C(=O)Nc4ccc([N+](=O)[O-])cc43)C(C#N)=C(N)NN2)cc1 (centres unmarked) [Compound 5i, 3-amino-7-((4-methoxyphenyl)amino)-5',6-dinitro-2'-oxo-1,2-dihydrospiro[[1,2]diazepine-5,3'-indoline]-4-carbonitrile] | – | – | inhibition at 50 µM (BChE): 31.2 ± 3.65%; inhibition at 50 µM (AChE): 46.1 ± 3.38%
COc1ccc(NC2=C([N+](=O)[O-])C3(C(=O)Nc4c(Cl)cc(Cl)cc43)C(C#N)=C(N)NN2)cc1 (centres unmarked) [Compound 5n, 3-amino-5',7'-dichloro-7-((4-methoxyphenyl)amino)-6-nitro-2'-oxo-1,2-dihydrospiro[[1,2]diazepine-5,3'-indoline]-4-carbonitrile] | 46.5 ± 4.77 | 35.4 ± 7.54 | –
N#CC1=C(N)NNC(Nc2cccc(O)c2)=C([N+](=O)[O-])C12C(=O)Nc1c(Br)cc(Br)cc12 (centres unmarked) [Compound 5q, 3-amino-5',7'-dibromo-7-((3-hydroxyphenyl)amino)-6-nitro-2'-oxo-1,2-dihydrospiro[[1,2]diazepine-5,3'-indoline]-4-carbonitrile] | 37.1 ± 0.84 | 63.1 ± 4.43 | IC50 (AChE; [2]): 12 ± 2.33 µM
